Here are results for 31 compounds from patent publication US7585859B2, “PDE4B inhibitors and uses therefor” (Plexxikon, Inc., priority 2004, dated 2009).

SMILES strings stand for the structures. Where two headings read alike, the source gives them in different places.

In assay [1] the target is T1, PDE4B: The catalytic domain of human PDE4B from S152-S528 (Homo sapiens, UniProt Q07343).
T1 construct: His6 (N); thrombin cleavage site (N); made in house; host or cells: E. coli
Nature of the assay: PDE4 IC50 determination by Scintillation Proximity Assay, PDE4B. It is filed as biochemical. The method in brief:
(§1)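 Hydrolysis of [^3H]cAMP measured by SPA with yttrium silicate beads, which bind the [^3H]AMP product strongly and cAMP weakly. Enzyme at 80 ng/ml for PDE4B, 4 ng/ml for PDE4D; 30 min at 30°.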
(In general: Scintillation proximity formats need no separation of bound from free tracer.)

Assay [2] addresses T2, PDE4D (Homo sapiens, UniProt Q08499).
T2 construct: PDE4D: The catalytic domain of human PDE4B from S3 16-V692; His6 (N); thrombin cleavage site (N); made in house; host or cells: E. coli
Nature of the assay: PDE4 IC50 determination by Scintillation Proximity Assay, PDE4D. It is filed as biochemical. The method, boiled down:
as §1

Where [3] appears, read: Table 1B, Formula I compounds, read-out: IC50 PDE4B.
The mark [4] stands for this setting: Table 1B, Formula I compounds, read-out: IC50 PDE4D.
The mark [5] stands for this setting: second part of Table 2B (2-23 to 2-103), column 3, column is PDE4B in first part, read-out: IC 50 vs. indicated assay h TNFα.
Where [6] appears, read: second part of Table 2B (2-23 to 2-103), column 5, column is PDE4D in first part, read-out: IC 50 vs. indicated assay h TNFα.
Setting [7] is: Table 3A, Formula III compounds, read-out: IC50 PDE4B.
[8] abbreviates: Table 3A, Formula III compounds, read-out: IC50 PDE4D.
Setting [9] is: first part of Table 2B (2-1 to 2-22), read-out: IC 50 vs. indicated assay PDE4B.
Where [10] appears, read: first part of Table 2B (2-1 to 2-22), read-out: IC 50 vs. indicated assay PDE4D.

T2 sequence (Q08499 380-756): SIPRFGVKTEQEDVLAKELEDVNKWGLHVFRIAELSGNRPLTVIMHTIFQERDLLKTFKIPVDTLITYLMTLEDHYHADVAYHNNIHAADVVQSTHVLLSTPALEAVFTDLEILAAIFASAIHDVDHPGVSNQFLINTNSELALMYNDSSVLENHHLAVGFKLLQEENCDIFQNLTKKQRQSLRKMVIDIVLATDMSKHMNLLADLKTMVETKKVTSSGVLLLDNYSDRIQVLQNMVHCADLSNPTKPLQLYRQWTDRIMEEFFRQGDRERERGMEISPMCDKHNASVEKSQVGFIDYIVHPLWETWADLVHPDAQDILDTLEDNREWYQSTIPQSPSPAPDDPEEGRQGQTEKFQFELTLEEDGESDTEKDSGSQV
T1 sequence (Q07343 with tags, fused parts or gaps): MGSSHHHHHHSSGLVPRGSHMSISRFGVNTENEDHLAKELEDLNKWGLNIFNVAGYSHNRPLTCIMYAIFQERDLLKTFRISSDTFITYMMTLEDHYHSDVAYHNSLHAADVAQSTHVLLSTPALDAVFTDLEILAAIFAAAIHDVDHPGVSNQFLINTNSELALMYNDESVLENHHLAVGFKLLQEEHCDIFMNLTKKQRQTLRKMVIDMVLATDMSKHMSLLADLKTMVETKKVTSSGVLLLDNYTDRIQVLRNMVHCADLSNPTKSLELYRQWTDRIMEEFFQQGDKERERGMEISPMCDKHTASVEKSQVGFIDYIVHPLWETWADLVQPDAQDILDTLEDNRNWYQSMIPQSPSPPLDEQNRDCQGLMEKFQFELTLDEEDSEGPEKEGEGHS

In the case of `COC(=O)C(CC(C)C)Nc1sc(C(=O)c2ccccn2)c(N)c1C#N` (centres unmarked) [Compound 1-64, 2-[4-Amino-3-cyano-5-(pyridine-2-carbonyl)-thiophen-2-ylamino]-4-methyl-pentanoic acid methyl ester], the values for the IC50 in assay [1] (setting [3]) and in assay [2] (setting [4]) were less than 10 µM and more than 10 µM, respectively.
`COc1ccc(C(=O)c2sc(Nc3ccccc3)nc2N)cc1` [Compound 2-37, (4-Amino-2-phenylamino-thiazol-5-yl)-(4-methoxy-phenyl)-methanone]: the IC50 in assay [1] (setting [5]) and in assay [2] (setting [6]) was less than 10 µM throughout.
For the compound `COC(=O)C(CC(C)C)Nc1sc(C(=O)c2coc3ccccc23)c(N)c1C#N` (centres unmarked) [Compound 1-106, 2-[4-Amino-5-(benzofuran-3-carbonyl)-3-cyano-thiophen-2-ylamino]-4-methyl-pentanoic acid methyl ester], the IC50 in assay [1] (setting [3]) was less than 10 µM; in assay [2] (setting [4]), more than 10 µM.
For `N#Cc1c(Nc2ccc(Oc3ccccc3)cc2)sc(C(=O)c2ccc(-c3ccccn3)s2)c1N` [Compound 1-76, 4-Amino-2-(4-phenoxy-phenylamino)-5-(5-pyridin-2-yl-thiophene-2-carbonyl)-thiophene-3-carbonitrile], the values for the IC50 in assay [1] (setting [3]) and in assay [2] (setting [4]) were less than 10 µM and more than 10 µM, respectively.
With `Nc1nc(Nc2ccc(F)cc2)sc1C(=O)c1ccc(F)cc1` [Compound 2-28, [4-Amino-2-(4-fluoro-phenylamino)-thiazol-5-yl]-(4-fluoro-phenyl)-methanone], the IC50 in assay [1] (setting [5]) and in assay [2] (setting [6]) was less than 10 µM throughout.
Consider `N#Cc1cccc(Nc2sc(C(=O)c3ccccn3)c(N)c2C#N)c1` [Compound 1-146, 4-Amino-2-(3-cyano-phenylamino)-5-(pyridine-2-carbonyl)-thiophene-3-carbonitrile], for which the figures for the IC50 in assay [1] (setting [3]) and in assay [2] (setting [4]) were less than 10 µM and more than 10 µM, respectively.
Consider `COc1ccc(C(=O)c2sc(Nc3ccc(C(=O)NC4CCOC4=O)cc3)c(C#N)c2N)c(OC)c1` (centres unmarked) [Compound 1-103, 4-[4-Amino-3-cyano-5-(2,4-dimethoxy-benzoyl)-thiophen-2-ylamino]-N-(2-oxo-tetrahydro-furan-3-yl)-benzamide], for which the IC50 in assay [1] (setting [3]) and in assay [2] (setting [4]) was more than 10 µM in each case.
In the case of `COC(=O)C(CCSC)Nc1sc(C(=O)c2cnn(-c3ccccc3)c2C)c(N)c1C#N` (centres unmarked) [Compound 1-53, 2-[4-Amino-3-cyano-5-(5-methyl-1-phenyl-1H-pyrazole-4-carbonyl)-thiophen-2-ylamino]-4-methylsulfanyl-butyric acid methyl ester], the IC50 in assay [1] (setting [3]) and in assay [2] (setting [4]) was more than 10 µM each time.
In the case of `Cc1ccc2cccnc2c1NS(=O)(=O)c1ccc(-c2cc(C(F)(F)F)on2)s1` [Compound 3-26, 5-(5-Trifluoromethyl-isoxazol-3-yl)-thiophene-2-sulfonic acid (7-methyl-quinolin-8-yl)-amide], the IC50 in assay [1] (setting [7]) and in assay [2] (setting [8]) was more than 10 µM each time.
In the case of `COC(=O)C(CC(C)C)Nc1sc(C(=O)c2cccc(Cl)c2)c(N)c1C#N` (centres unmarked) [Compound 1-118, 2-[4-Amino-5-(3-chloro-benzoyl)-3-cyano-thiophen-2-ylamino]-4-methyl-pentanoic acid methyl ester], the IC50 was less than 10 µM in assay [1] (setting [3]) and more than 10 µM in assay [2] (setting [4]).
In the same order, the values of `N#Cc1c(NC2CCCC2)sc(C(=O)c2ccc(-c3ccccc3)s2)c1N` [Compound 1-203, 4-Amino-2-cyclopentylamino-5-(5-phenyl-thiophene-2-carbonyl)-thiophene-3-carbonitrile] are less than 10 µM and less than 10 µM.
Regarding `Cc1c(C(=O)c2sc(NC3CCCC3)nc2N)cnn1-c1ccccc1` [Compound 2-21, (4-Amino-2-cyclopentylamino-thiazol-5-yl)-(5-methyl-1-phenyl-1H-pyrazol-4-yl)-methanone], the IC50 in assay [1] (setting [9]) and in assay [2] (setting [10]) was less than 10 µM in each case.
Consider `COc1cc(NS(=O)(=O)c2cc(C)ccc2OC)c2ncccc2c1` [Compound 3-58, 2-Methoxy-N-(6-methoxy-quinolin-8-yl)-5-methyl-benzenesulfonamide], for which the IC50 in assay [1] (setting [7]) and in assay [2] (setting [8]) was more than 10 µM throughout.
Regarding `COc1ccc(OC)c(C(=O)c2sc(Nc3ccc(Oc4ccccc4)cc3)c(C#N)c2N)c1` [Compound 1-96, 4-Amino-5-(2,5-dimethoxy-benzoyl)-2-(4-phenoxy-phenylamino)-thiophene-3-carbonitrile], the IC50 in assay [1] (setting [3]) is less than 10 µM; in assay [2] (setting [4]), more than 10 µM.
In the case of `O=S(=O)(Nc1cccc2cccnc12)c1ccc(Br)s1` [Compound 3-4, 5-Bromo-thiophene-2-sulfonic acid quinolin-8-ylamide], the IC50 in assay [1] (setting [7]) and in assay [2] (setting [8]) was more than 10 µM each time.
`COc1ccc(C(=O)c2sc(NC3CCCC3)c(C#N)c2N)cc1` [Compound 1-183, 4-Amino-2-cyclopentylamino-5-(4-methoxy-benzoyl)-thiophene-3-carbonitrile]: the IC50 in assay [1] (setting [3]) and in assay [2] (setting [4]) was less than 10 µM each time.
`COc1cc(NS(=O)(=O)c2ccc(C#N)cc2)c2ncccc2c1` [Compound 3-52, 4-Cyano-N-(6-methoxy-quinolin-8-yl)-benzenesulfonamide]: the IC50 in assay [1] (setting [7]) and in assay [2] (setting [8]) was more than 10 µM in each case.
`Cc1ccc(S(=O)(=O)Nc2cccc3cccnc23)cc1` [Compound 3-46, 4-Methyl-N-quinolin-8-yl-benzenesulfonamide]: the IC50 in assay [1] (setting [7]) and in assay [2] (setting [8]) was more than 10 µM in each case.
As to `N#Cc1c(Nc2ccc3c(c2)CCC3)sc(C(=O)c2ccccn2)c1N` [Compound 1-147, 4-Amino-2-(indan-5-ylamino)-5-(pyridine-2-carbonyl)-thiophene-3-carbonitrile], the IC50 in assay [1] (setting [3]) and in assay [2] (setting [4]) was less than 10 µM throughout.
Regarding `N#Cc1c(NCCN2CCCCC2)sc(C(=O)c2csc3ccccc23)c1N` [Compound 1-48, 4-Amino-5-(benzo[b]thiophene-3-carbonyl)-2-(2-piperidin-1-yl-ethylamino)-thiophene-3-carbonitrile], the IC50 in assay [1] (setting [3]) and in assay [2] (setting [4]) was more than 10 µM in each case.
As for `N#Cc1c(Nc2ccc(C(=O)NC3CCOC3=O)cc2)sc(C(=O)c2ccccc2Cl)c1N` (centres unmarked) [Compound 1-114, 4-[4-Amino-5-(2-chloro-benzoyl)-3-cyano-thiophen-2-ylamino]-N-(2-oxo-tetrahydro-furan-3-yl)-benzamide], the IC50 in assay [1] (setting [3]) and in assay [2] (setting [4]) was less than 10 µM in each case.
Regarding `COc1cc(NS(=O)(=O)c2ccc(C)cc2)c2ncccc2c1` [Compound 3-48, N-(6-Methoxy-quinolin-8-yl)-4-methyl-benzenesulfonamide], the IC50 in assay [1] (setting [7]) and in assay [2] (setting [8]) was more than 10 µM each time.
As for `COc1cccc(C(=O)c2sc(NC3CC3)nc2N)c1` [Compound 2-87, (4-Amino-2-cyclopropylamino-thiazol-5-yl)-(3-methoxy-phenyl)-methanone], the IC50 in assay [1] (setting [5]) and in assay [2] (setting [6]) was less than 10 µM throughout.
Take `CC(C)Nc1nc(N)c(C(=O)c2cc(-c3ccc(Cl)c(Cl)c3)no2)s1` [Compound 2-14, (4-Amino-2-isopropylamino-thiazol-5-yl)-[3-(3,4-dichloro-phenyl)-isoxazol-5-yl]-methanone]: the IC50 in assay [1] (setting [9]) and in assay [2] (setting [10]) was less than 10 µM in each case.
With `CCOC(=O)c1c(Nc2c(C)cccc2C)sc(C(=O)c2ccc(Br)cc2)c1N` [Compound 1-24, 4-Amino-5-(4-bromo-benzoyl)-2-(2,6-dimethyl-phenylamino)-thiophene-3-carboxylic acid ethyl ester], the IC50 in assay [1] (setting [3]) and in assay [2] (setting [4]) was more than 10 µM each time.
As for `Nc1nc(Nc2ccccc2F)sc1C(=O)c1cccc(C(F)(F)F)c1` [Compound 2-54, [4-Amino-2-(2-fluoro-phenylamino)-thiazol-5-yl]-(3-trifluoromethyl-phenyl)-methanone], the IC50 in assay [1] (setting [5]) and in assay [2] (setting [6]) was less than 10 µM throughout.
On to `COC(=O)C(CC(C)C)Nc1sc(C(=O)c2c(-c3ccccc3)noc2C)c(N)c1C#N` (centres unmarked) [Compound 1-60, 2-[4-Amino-3-cyano-5-(5-methyl-3-phenyl-isoxazole-4-carbonyl)-thiophen-2-ylamino]-4-methyl-pentanoic acid methyl ester], for which the IC50 in assay [1] (setting [3]) was less than 10 µM; in assay [2] (setting [4]) it was more than 10 µM.
`COc1ccc(S(=O)(=O)Nc2cc(OC)cc3cccnc23)cc1` [Compound 3-53, 4-Methoxy-N-(6-methoxy-quinolin-8-yl)-benzenesulfonamide]: the IC50 in assay [1] (setting [7]) and in assay [2] (setting [8]) was more than 10 µM each time.
With `Nc1nc(Nc2ccc(Oc3ccccc3)cc2)sc1C(=O)C1CCCC1` [Compound 2-101, [4-Amino-2-(4-phenoxy-phenylamino)-thiazol-5-yl]-cyclopentyl-methanone], the IC50 in assay [1] (setting [5]) and in assay [2] (setting [6]) was more than 10 µM each time.
With `N#Cc1cccc(Nc2nc(N)c(C(=O)c3ccc(OC(F)F)cc3)s2)c1` [Compound 2-60, 3-[4-Amino-5-(4-difluoromethoxy-benzoyl)-thiazol-2-ylamino]-benzonitrile], the results for the IC50 in assay [1] (setting [5]) and in assay [2] (setting [6]) were less than 10 µM and more than 10 µM, respectively.
On to `Cc1ccc2cccnc2c1NS(=O)(=O)c1ccc(-c2ccccn2)s1` [Compound 3-29, 5-Pyridin-2-yl-thiophene-2-sulfonic acid (7-methyl-quinolin-8-yl)-amide], for which the IC50 in assay [1] (setting [7]) and in assay [2] (setting [8]) was more than 10 µM throughout.
